Test results as given in publication PMC8901179 (Journal of medicinal chemistry, 2019).

Legend:
[1] = test system: Bmal1-dLuc U2OS cells; test: Cell-based circadian assay; details: for fold more potent than longdaysin (period lengthening): relative to longdaysin
[2] = test system: 374 kinases; test: Profiling toward 374 kinases; format: biochemical; details: 5 μM compound
[3] = test system: mouse behavioral rhythms; details: cited from earlier work
[4] = test system: Bmal1-dLuc U2OS cells; details: cited from earlier work
[5] = test system: mouse behavioral rhythms; test: Circadian behavior measurement, infusion into the lateral ventricle; format: in vivo, mice; details: 1 mM infusion, constant darkness

Structure (SMILES) | fold more potent than longdaysin (period lengthening) [1] | period lengthening activity (in words) [1] | other results
CC(C)n1cnc2c(NCc3cccc(C(F)(F)F)c3)nc(NCCN(C)C)nc21 [6a, N2-(2-(Dimethylamino)ethyl)-9-isopropyl-N6-(3-(trifluoromethyl)benzyl)-9H-purine-2,6-diamine] | ~ 3 fold | – | –
CC(C)n1cnc2c(NCc3cccc(C(F)(F)F)c3)nc(N3CCC(O)CC3)nc21 [6d, 1-(9-Isopropyl-6-((3-(trifluoromethyl)benzyl)amino)-9H-purin-2-yl)piperidin-4-ol] | – | decreased activity | –
CC(C)n1cnc2c(NCc3cccc(C(F)(F)F)c3)nc(NCCN3CCOCC3)nc21 [6f, 9-Isopropyl-N2-(2-morpholinoethyl)-N6-(3-(trifluoromethyl)-benzyl)-9H-purine-2,6-diamine] | – | decreased activity | –
CC(C)n1cnc2c(NCc3cccc(C(F)(F)F)c3)nc(NCCN)nc21 [6k, N2-(2-Aminoethyl)-9-isopropyl-N6-(3-(trifluoromethyl)benzyl)-9H-purine-2,6-diamine] | – | much less activity compared to 6a | –
CC(C1CC1)n1cnc2c(NCc3cccc(C(F)(F)F)c3)ncnc21 (stereo not shown) [7a] | ~ 3 fold | – | –
CC(C1CC1)n1cnc2c(NCc3cccc(C(F)(F)F)c3)nc(NCCN(C)C)nc21 (stereo not shown) [7b, 9-(1-Cyclopropylethyl)-N2-(2-(dimethylamino)ethyl)-N6-(3-(trifluoromethyl)benzyl)-9H-purine-2,6-diamine] | ~ 10 fold | – | number of kinases among 374 kinases inhibited by more than 50% [2]: 9
CC(C1CC1)n1cnc2c(N(C)Cc3cccc(C(F)(F)F)c3)nc(NCCN(C)C)nc21 (stereo not shown) [7c, 9-(1-Cyclopropylethyl)-N2-(2-(dimethylamino)ethyl)-N6-methyl-N6-(3-(trifluoromethyl)benzyl)-9H-purine-2,6-diamine] | – | dramatic decrease in the period lengthening activity | –
CC(C1CC1)n1cnc2c(OCc3cccc(C(F)(F)F)c3)nc(NCCN(C)C)nc21 (stereo not shown) [7d, N1-(9-(1-Cyclopropylethyl)-6-((3-(trifluoromethyl)benzyl)oxy)-9H-purin-2-yl)-N2,N2-dimethylethane-1,2-diamine] | – | dramatic decrease in the period lengthening activity | –
Nc1nccc(-c2c(-c3ccc(F)cc3)ncn2C2CCCCC2)n1 [PF-670462] | – | – | period change in vivo (in words) [3]: only small period change in vivo
CC(C)n1cnc2c(NCc3cccc(C(F)(F)F)c3)ncnc21 [longdaysin] | – | – | compound concentration for 1 h period lengthening [4]: 0.3 µM; fold more potent than benipurine (1 h period lengthening) ([1]; relative to benipurine): 3 fold; period lengthening of circadian behavior [5]: about 0.05 h
